From patent US20240139185A1, “COMPOUNDS THAT PARTICIPATE IN COOPERATIVE BINDING AND USES THEREOF” (Revolution Medicines, Inc., priority 2018, published 2024)
Like-named read-outs stand apart in the source and are kept apart here.

What was measured:
pERK in H358 cells = test: pERK inhibition in H358 cells; format: cell-based, human; conditions: read-out: Cellular pERK inhibition
Experimental: H358 cells (5500 cells) derived from a human lung cancer were plated in a 96 well plate in media (100 uL, RPMI with 10% FBS). After 24 hours, cells were treated for 4 hours with compound or DMSO. Cells were washed twice with room temperature TBS (200 uL) and fixed for 20 minutes with 4% paraformaldehyde diluted with TBS (150 uL). Cells were washed four times for five minutes with 0.1% TritonX/TBS (150 uL) to permeabilize the membrane. Cells were incubated with TBS blocking buffer (100 uL) at room temperature for 60 minutes. Primary antibody (Phospho-p44/42 MAPK (Erk1/2) (Thr202/Tyr204) (D13.14.4E) XP® Rabbit mAb #4370, Cell Signaling Technology; 1:200) was added, and the cells were incubated overnight at 4 C. The cells were washed four times for five minutes with 0.1% Tween 20/TBS (150 uL). Secondary antibody (IRDye® 800CW Goat-Anti-Rabbit IgG, Li-Cor Biosciences; 1:1000) and DRAQ5™ (Invitrogen; 1:2000) was added, and the cells were incubated for 1 hour at room temperature. The cells were washed four times for five minutes with 0.1% Tween 20/TBS (150 uL) and scanned using the LICOR (700 and 800 nm).

cyclophilin A (CYPA) = cyclophilin A (CYPA) (Homo sapiens, UniProt P62937); test: CYPA-compound binary complex formation by SPR; conditions: read-out: CYPA Binding Affinity
Experimental: In order to determine the affinity of compounds of the invention for cyclophilin A (CYPA), we employed surface plasmon resonance binding analysis using the following reagents, instruments and protocol as supplied by the instrument manufacturer.
Reagents and Instrument • 1. Instrument: Biacore S200 (GE Healthcare Life Sciences) • 2. Running buffer: 1×HBS-P+ (1×HBS supplemented with 0.05% Tween20), pH7.4, and 2% DMSO. • 3. Ligand: CypA-Avi • 4. Analyte: Serial dilution of WDB compounds from 50 μM to 0 μM, 2-fold dilution, 10 points (10 mM stock concentration). • 5. Sensor kit: Biotin CAPture Kit (BR28-9202-34, GE Healthcare Life Sciences) • 6. Regeneration buffer: 1 volume of 1 M NaOH and 3 volumes of 8 M guanidine hydrochloride (supplied with CAPture Kit, BR28-9202-34, GE Healthcare Life Sciences)
Experimental Procedure • 1. Capture of CAPreagent: 2 μl/min for 60 seconds. • 2. Immobilization of ligand CypA: Use Fc1 as the reference cell; immobilize CypA at 4 μg/ml using 5 μl/min flowrate on Fc2 (60s), Fc3 (80s) and Fc4 (80s), respectively. • 3. Binding of analytes: Inject WDB compound dilutions sequentially at 50 μl/min for association of 60 seconds. And then let it dissociates in buffer at 50 μl/min for 60 seconds. • 4. Regeneration: 2 injections of regeneration buffer at 30 μl/min for 60 seconds to regenerate the chip surface. • 5. Solvent correction: Run solvent correction at beginning and the end of the run. If run more than 6 compounds, add additional solvent correction every 6 compounds. • 6. Data fitting with built-in Biacore Evaluation Software: Steady-state fitting.

[1] = target: T1, BRAF-GTP-KRAS-G12C complex (Homo sapiens, UniProt P01116+P62937, G12C); test: KRAS-BRAF complex disruption through competition with CYPA-compound by TR-FRET; conditions: biochemical BRAF-KRAS G12C-GTP disruption assay EC50, with CYPA
T1 construct: 50 nM of His6-KRas G12C-GTP (1-169); 500 nM of tagless CypA (1-165)
Experimental: In this example, TR-FRET was used to measure the compound-facilitated disruption of a KRAS-BRAF complex. A mixture of tagless Cyclophilin A, His6-KRAS G12C-GMP-PNP, and GST-BRAF RAS binding domain was added to a 384-well assay plate containing compounds of the invention and incubated for 3 hours. A mixture of Anti-His Eu-W1024 and anti-GST allophycocyanin was then added and the reaction was incubated for an additional 1.5 hours. TR-FRET signal was read on an EnVision microplate reader (Perkin Elmer, Ex 320 nm, Em 665/615 nm). Compounds that facilitate disruption of a KRAS_BRAF complex were identified as those eliciting a decrease in the TR-FRET ratio relative to DMSO control wells. To determine the presenter-dependence of the compound-mediated KRAS-BRAF complex disruption, Cyclophilin A was left out of the initial incubation (see Table 5). To determine G12C specificity of the compound-mediated KRAS-BRAF complex disruption, wild-type KRAS was used instead of G12C KRAS (see Table 5).
Reagents and Instrument • Tagless CYPA; 519 μM in PBS buffer, pH 7.4 • GST BRAF; 110 μM in PBS buffer, pH 7.4 • His6-KRASG12C-GMP-PNP; 50 μM in PBS buffer, pH 7.4 • His6-KRASWT-GMP-PNP; 40 μM in PBS buffer, pH 7.4 • Anti-His Eu-W1024 (LANCE® Eu-W1024; Perkin Elmer) • Anti-GST allophycocyanin (Anti-GST IgG conjugated to SureLight®-Allophycocyanin; Perkin Elmer; Product Number AD0059G) • Test compounds, 10 mM in 100% DMSO • EnVision (Perkin Elmer) • Combi MultiDrop liquid dispenser with 8-channel small volume cassette • 384-well ProxiPlate (black)
Experimental Protocol • 1. Use Mosquito to dispense 100 nL/well of compounds (varying concentration in […]) into 384-well black ProxiPlate to make assay-ready-plate (ARP). • 2. Make assay buffer containing 25 mM Hepes pH 7.3, 100 mM NaCl, 5 mM MgCl2, 0.05% BSA, and 0.002% Tween-20. • 3. Make PRE-MIX A: delivers final concentrations of 50 nM of His6-KRas G12C-GTP (1-169) and 500 nM of tagless CypA (1-165) in assay buffer. • a. For presenter dependence experiments, omit addition of tagless CypA • b. For G12C/wt specificity experiments, substitute His6-KRas WT-GTP (1-169) for His6-KRas G12C-GTP (1-169) • 4. Use MultiDrop Combi to dispense PRE-MIX A into ARP, 7 μl/well. Incubate 3 hr at room temperature. • 5. Make PRE-MIX B: delivers final concentrations of 10 nM of anti-His Eu-W1024 and 50 nM of anti-GST APC. • 6. Use MultiDrop Combi to dispense PRE-MIX B into ARP, 3 μl/well. Shake briefly on Combi and incubate 1.5 hr at room temperature. • 7. Read on EnVision (Ex: 320 nm; Em1: 615 nm; Em2: 665 nm). • 8. Data is processed using Dotmatics. Curves are fit using a 4-parameter non-linear fit to determine the EC50 value for formation of the ternary complex.

[2] = Homo sapiens, NCI-H358, 4 hours treatment

SMILES | IC50 (pERK in H358 cells; 4 hours treatment) [µM] | Kd (cyclophilin A (CYPA)) [µM] | EC50 [1] [µM] | IC50 (pERK in H358 cells; [2]) [µM]
CC(C)[C@@H](C(=O)N[C@H]1Cc2cc(O)cc(c2)-c2ccc3c(C(C)(C)C#N)cn(c3c2)CC(CO)COC(=O)[C@@H]2CCCN(N2)C1=O)N(C)C(=O)C1CN(C(=O)CCl)C1 (single isomer, unassigned) [Compound 21] | > 10 | > 15 | 0.5 to 5 | 
CC(C)C(C(=O)NC1Cc2cc(O)cc(c2)-c2ccc3c(C(C)(C)C#N)cn(c3c2)CC(F)COC(=O)C2CCCN(N2)C1=O)N(C)C(=O)C1CN(C(=O)CCl)C1 (single isomer, unassigned) [Compound 25] | > 10 | 5 to 15 | ≤ 0.5 | 
CC(C)C(C(=O)NC1Cc2cc(O)cc(c2)-c2ccc3c(C(C)(C)C#N)cn(c3c2)CC(C(F)F)COC(=O)C2CCCN(N2)C1=O)N(C)C(=O)C1CN(C(=O)CCl)C1 (single isomer, unassigned) [Compound 36] | 1 to 10 | 5 to 15 | ≤ 0.5 | 
CC(C)[C@@H](C(=O)N[C@H]1Cc2cc(O)cc(c2)-c2ccc3c(C(C)(C)C#N)cn(c3c2)CC(C(F)F)COC(=O)[C@@H]2CCCN(N2)C1=O)N(C)C(=O)C1CN(C(=O)CCl)C1 (single isomer, unassigned) [Compound 37] | 1 to 10 | 5 to 15 | ≤ 0.5 | 
CC1COC(=O)[C@@H]2CCCN(N2)C(=O)[C@@H](NC(=O)[C@H](C(C)C)N(C)C(=O)C2CN(C(=O)CCl)C2)Cc2cc(O)cc(c2)-c2ccc3c(S(C)(=O)=O)cn(c3c2)C1 (single isomer, unassigned) [Compound 111] | > 10 | 5 to 15 | ≤ 0.5 | 
CC1COC(=O)[C@@H]2CCCN(N2)C(=O)[C@@H](NC(=O)[C@H](C(C)C)N(C)C(=O)C2CN(C(=O)CCl)C2)Cc2cc(O)cc(c2)-c2ccc3c(c2)N(CCO3)C1 (single isomer, unassigned) [Compound 183] | 1 to 10 | 5 to 15 | 0.5 to 5 | 
C=CC(=O)N1CCN([C@H](C(=O)N[C@H]2Cc3cc(O)cc(c3)-c3ccc4nc(C)n(c4c3)CC(C)(C)COC(=O)[C@@H]3CCCN(N3)C2=O)C(C)C)C1=O [Compound 1, (2S)-2-(3-acryloyl-2-oxoimidazolidin-1-yl)-N-((6^3S,4S)-2^5-hydroxy-1^2,10,10-trimethyl-5,7-dioxo-6^1,6^2,6^3,6^4,6^5,6^6-hexahydro-1^1H-8-oxa-1(6,1)-benzo[d]imidazola-6(1,3)-pyridazina-2(1,3)-benzenacycloundecaphane-4-yl)-3-methylbutanamide] |  | 5 to 15 | ≤ 0.5 | > 10
C=CC(=O)N1CCN(C(C(=O)NC2Cc3cc(O)cc(c3)-c3ccc4c(C(C)(C)C#N)cn(c4c3)CC(C)(C)COC(=O)C3CCCN(N3)C2=O)C(C)C)C(=O)C1 (stereo not drawn) [Compound 14] | > 10 | > 15 | > 5 | 
CC1COC(=O)C2CCCN(N2)C(=O)C(NC(=O)C(C(C)C)N(C)C(=O)C2CN(C(=O)C(C)Cl)C2)Cc2cc(O)cc(c2)-c2ccc3c(C(C)(C)C#N)cn(c3c2)C1 (stereo not drawn) [Compound 18] | > 10 | > 15 | 0.5 to 5 | 

Next, values leading:

IC50 (pERK in H358 cells; 4 hours treatment) [µM] | Kd (cyclophilin A (CYPA)) [µM] | EC50 [1] [µM] | IC50 (pERK in H358 cells; [2]) [µM] | SMILES
1 to 10 | ≤ 5 | ≤ 0.5 |  | CC1COC(=O)C2CCCN(N2)C(=O)C(NC(=O)C(C(C)C)N(C)C(=O)C2CN(C(=O)CCl)C2)Cc2cc(O)cc(c2)-c2ccc3c(c2)N(C1)CC3(C)C#N (mixture of isomers) [Compound 224]
1 to 10 | ≤ 5 | ≤ 0.5 |  | CC1COC(=O)C2CCCN(N2)C(=O)C(NC(=O)C(C(C)C)N(C)C(=O)C2CN(C(=O)CCl)C2)Cc2cc(O)cc(c2)-c2ccc3c(c2)N(C1)CC3(C)CCC#N (mixture of isomers) [Compound 225]
> 10 | 5 to 15 | ≤ 0.5 |  | CC(C)[C@@H](C(=O)N[C@H]1Cc2cc(O)cc(c2)-c2ccc3c(C(C)(C)C#N)cn(c3c2)CC(CO)COC(=O)[C@@H]2CCCN(N2)C1=O)N(C)C(=O)C1CN(C(=O)CCl)C1 (single isomer, unassigned) [Compound 22]
≤ 1 | 5 to 15 | ≤ 0.5 |  | COCC1COC(=O)C2CCCN(N2)C(=O)C(NC(=O)C(C(C)C)N(C)C(=O)C2CN(C(=O)CCl)C2)Cc2cc(O)cc(c2)-c2ccc3c(C(C)(C)C#N)cn(c3c2)C1 (single isomer, unassigned) [Compound 24]
1 to 10 | ≤ 5 | ≤ 0.5 |  | CC(C)C(C(=O)NC1Cc2cc(O)cc(c2)-c2ccc3c(C(C)(C)C#N)cn(c3c2)CC(Cl)COC(=O)C2CCCN(N2)C1=O)N(C)C(=O)C1CN(C(=O)CCl)C1 (single isomer, unassigned) [Compound 41]
> 10 | ≤ 5 | 0.5 to 5 |  | CC1COC(=O)[C@@H]2CCCN(N2)C(=O)[C@@H](NC(=O)[C@H](C(C)C)N(C)C(=O)C2CN(C(=O)CCl)C2)Cc2cc(O)cc(c2)-c2ccc3c(c2)N(CCO3)C1 (single isomer, unassigned) [Compound 184]
 | ≤ 5 | ≤ 0.5 | > 10 | CC(C)[C@@H](C(=O)N[C@H]1Cc2cc(O)cc(c2)-c2ccc3c(C#N)cn(c3c2)CC(C)(C)CNC(=O)[C@@H]2CCCN(N2)C1=O)N(C)C(=O)C1CN(C(=O)CCl)C1 [Compound 3, 1-(2-chloroacetyl)-N-((2S)-1-(((6^3S,4S)-1^3-cyano-2^5-hydroxy-10,10-dimethyl-5,7-dioxo-6^1,6^2,6^3,6^4,6^5,6^6-hexahydro-1^1H-8-aza-1(6,1)-indola-6(1,3)-pyridazina-2(1,3)-benzenacycloundecaphane-4-yl)amino)-3-methyl-1-oxobutan-2-yl)-N-methylazetidine-3-carboxamide]
